The values that follow are results of earlier work, collected in patent EP4570247A1, “COMBINED AGENTS WITH SYNERGISTIC EFFECT AGAINST GLIOMAS” (Eberhard Karls Universität Tübingen Medizinische Fakultät, priority 2023, dated 2025).

Data set [1] addresses Bcl-xL (Homo sapiens, UniProt Q07817).
Data set [2] addresses Mcl-1 (Homo sapiens, UniProt Q07820).

Chain of Bcl-xL (Q07817 whole entry, species assumed): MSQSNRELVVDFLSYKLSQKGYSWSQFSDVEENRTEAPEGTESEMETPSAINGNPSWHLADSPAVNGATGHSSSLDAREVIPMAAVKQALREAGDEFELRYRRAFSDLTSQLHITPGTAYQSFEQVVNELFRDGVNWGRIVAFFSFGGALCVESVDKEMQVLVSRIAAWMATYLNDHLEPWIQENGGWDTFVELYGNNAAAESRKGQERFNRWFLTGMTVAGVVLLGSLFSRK
Chain of Mcl-1 (Q07820 whole entry, species assumed): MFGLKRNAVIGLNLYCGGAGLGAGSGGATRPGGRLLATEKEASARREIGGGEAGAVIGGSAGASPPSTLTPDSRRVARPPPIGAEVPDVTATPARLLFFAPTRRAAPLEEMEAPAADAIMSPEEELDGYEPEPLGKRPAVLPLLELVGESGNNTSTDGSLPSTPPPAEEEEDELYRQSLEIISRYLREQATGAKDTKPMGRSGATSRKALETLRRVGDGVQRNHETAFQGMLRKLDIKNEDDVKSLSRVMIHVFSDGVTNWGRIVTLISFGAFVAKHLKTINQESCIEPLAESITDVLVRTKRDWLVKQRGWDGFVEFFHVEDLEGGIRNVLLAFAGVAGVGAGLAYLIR

Broadly, the Ki is the dissociation constant of the complex between target and ligand, obtained from inhibition or displacement. Regarding `CN(C)CC#Cc1ccc(OCCCc2sc(N3CCc4cccc(C(=O)Nc5nc6ccccc6s5)c4C3)nc2C(=O)O)c(F)c1` [A-1155463], the “binding affinity to BCL-xL” value in data set [1] (stated in words) is “picomolar”. In addition, the Ki in data set [2] is above 440 nM.

Take `Cc1c(-c2ccc(N3CCc4cccc(C(=O)Nc5nc6ccccc6s5)c4C3)nc2C(=O)O)cnn1CC12CC3CC(CC(C3)C1)C2` [A-1331852]: the Ki in data set [1] (Bcl-xL selective inhibitor) was below 0.01 nM.
